Calls of active or inactive are those of the source. The rule behind the calls is not given here.

The text below walks through data of ChEMBL document CHEMBL2040762, “Hypnotic effects and GABAergic mechanism of licorice (Glycyrrhiza glabra) ethanol extract and its major flavonoid constituent glabrol” (Bioorg Med Chem, 2012).

Experiment [1] deals with Mus musculus. Nature of the experiment: Hypnotic activity in fasted C57BL/6N mouse assessed as increase in pentobarbital-induced sleep duration at 0.5 mg/kg, po administered 45 mins prior to pentobarbital-induction coadministered with flumazenil by polysomnographic analysis. The class given is functional, organism-based. More on the design: dose 0.5 mg/kg.
Experiment [2] has as its system Mus musculus. Nature of the experiment: Hypnotic activity in fasted C57BL/6N mouse assessed as decrease in pentobarbital-induced sleep latency at 2 mg/kg, po administered 45 mins prior to pentobarbital-induction coadministered with flumazenil by polysomnographic analysis. The format is functional, organism-based. More on the design: dose 2 mg/kg.
The test system of experiment [3] is Mus musculus. Nature of the experiment: Hypnotic activity in po dosed fasted C57BL/6N mouse assessed as increase in pentobarbital-induced non-rapid eye movement sleep duration at 2 mg/kg, po administered 45 mins prior to pentobarbital-induction measured up to 2 hrs by polysomnographic analysis. The format is functional, organism-based. More on the design: dose 2 mg/kg.

Experiment [4] relates to Mus musculus. Put plainly: Hypnotic activity in po dosed fasted C57BL/6N mouse assessed as change in pentobarbital-induced rapid eye movement sleep duration at 2 mg/kg, po administered 45 mins prior to pentobarbital-induction measured up to 3 hrs by polysomnographic analysis. The format is functional, organism-based. More on the design: dose 2 mg/kg.
For experiment [5], the system named is Mus musculus. Put plainly: Hypnotic activity in po dosed fasted C57BL/6N mouse assessed as decrease in pentobarbital-induced non-rapid eye movement sleep EEG delta activity at 2 mg/kg, po administered 45 mins prior to pentobarbital-induction by polysomnographic analysis. The class given is functional, organism-based. More on the design: dose 2 mg/kg.
Experiment [6] has as its system Mus musculus. Put plainly: Hypnotic activity in po dosed fasted C57BL/6N mouse assessed as decrease in pentobarbital-induced non-rapid eye movement sleep duration at 2 mg/kg, po administered 45 mins prior to pentobarbital-induction by polysomnographic analysis. The format is functional, organism-based. More on the design: dose 2 mg/kg.
Experiment [7] concerns Mus musculus. Nature of the experiment: Hypnotic activity in po dosed fasted C57BL/6N mouse assessed as effect on pentobarbital-induced rapid eye movement sleep duration at 2 mg/kg, po administered 45 mins prior to pentobarbital-induction by polysomnographic analysis. The format is functional, organism-based. More on the design: dose 2 mg/kg.
Experiment [8] deals with Mus musculus. Nature of the experiment: Hypnotic activity in po dosed fasted C57BL/6N mouse assessed as change in pentobarbital-induced non-rapid eye movement sleep duration at 2 mg/kg, po administered 45 mins prior to pentobarbital-induction measured up to 3 hrs by polysomnographic analysis. The class given is functional, organism-based. More on the design: dose 2 mg/kg.

Experiment [9] has as its system Mus musculus. Put plainly: Hypnotic activity in fasted C57BL/6N mouse assessed as increase in pentobarbital-induced sleep duration at 2 mg/kg, po administered 45 mins prior to pentobarbital-induction coadministered with flumazenil by polysomnographic analysis. The format is functional, organism-based. More on the design: dose 2 mg/kg.
In experiment [10] the test system is Mus musculus. Nature of the experiment: Hypnotic activity in po dosed fasted C57BL/6N mouse assessed as decrease in latency of pentobarbital-induced sleep at 2 mg/kg, po administered 45 mins prior to pentobarbital-induction by polysomnographic analysis. The format is functional, organism-based. More on the design: dose 2 mg/kg.
Experiment [11] has as its system Mus musculus. Nature of the experiment: Hypnotic activity in fasted C57BL/6N mouse assessed as increase in pentobarbital-induced sleep duration at 10 mg/kg, po administered 45 mins prior to pentobarbital-induction coadministered with flumazenil by polysomnographic analysis. The format is functional, organism-based. More on the design: dose 10 mg/kg.
Experiment [12] relates to Mus musculus. Put plainly: Hypnotic activity in fasted C57BL/6N mouse assessed as decrease in pentobarbital-induced sleep latency at 10 mg/kg, po administered 45 mins prior to pentobarbital-induction coadministered with flumazenil by polysomnographic analysis. The class given is functional, organism-based. More on the design: dose 10 mg/kg.
In experiment [13] the test system is Mus musculus. Put plainly: Hypnotic activity in fasted C57BL/6N mouse assessed as increase in pentobarbital-induced sleep duration at 2.5 mg/kg, po administered 45 mins prior to pentobarbital-induction coadministered with flumazenil by polysomnographic analysis. The format is functional, organism-based. More on the design: dose 2.5 mg/kg.
Experiment [14] concerns Mus musculus. Put plainly: Hypnotic activity in fasted C57BL/6N mouse assessed as […] in latency of pentobarbital-induced sleep at 10 mg/kg, po administered 45 mins prior to pentobarbital-induction by polysomnographic analysis. The class given is functional, organism-based. More on the design: dose 10 mg/kg.
Experiment [15] deals with Mus musculus. Put plainly: Hypnotic activity in fasted C57BL/6N mouse assessed as increase in pentobarbital-induced sleep duration at 10 mg/kg, po administered 45 mins prior to pentobarbital-induction by polysomnographic analysis. More on the design: dose 10 mg/kg. The class given is functional, organism-based.
Experiment [16] deals with Mus musculus. Nature of the experiment: Hypnotic activity in po dosed fasted C57BL/6N mouse assessed as decrease in latency of pentobarbital-induced sleep administered 45 mins prior to pentobarbital-induction by polysomnographic analysis. The format is functional, organism-based.
The test system of experiment [17] is Mus musculus. Put plainly: Hypnotic activity in fasted C57BL/6N mouse assessed as […] in latency of pentobarbital-induced sleep at 50 mg/kg, po administered 45 mins prior to pentobarbital-induction by polysomnographic analysis. The class given is functional, organism-based. More on the design: dose 50 mg/kg.
Experiment [18] has as its system Mus musculus. Nature of the experiment: Hypnotic activity in fasted C57BL/6N mouse assessed as increase in pentobarbital-induced sleep duration at 50 mg/kg, po administered 45 mins prior to pentobarbital-induction coadministered with flumazenil by polysomnographic analysis. The class given is functional, organism-based. More on the design: dose 50 mg/kg.
Experiment [19] in a line: Displacement of [3H]flumazenil from GABA(A)-BZD receptor in Sprague-Dawley rat cerebral cortex membranes after 40 mins by liquid scintillation counting. The format is cell membranes, Membrane.
In experiment [20] the test system is Mus musculus. Put plainly: Hypnotic activity in fasted C57BL/6N mouse assessed as increase in pentobarbital-induced sleep duration at 50 mg/kg, po administered 45 mins prior to pentobarbital-induction by polysomnographic analysis. The format is functional, organism-based. More on the design: dose 50 mg/kg.
For experiment [21], the system named is Mus musculus. Put plainly: Hypnotic activity in po dosed fasted C57BL/6N mouse assessed as increase in pentobarbital-induced sleep duration administered 45 mins prior to pentobarbital-induction by polysomnographic analysis. The class given is functional, organism-based.
For experiment [22], the system named is Mus musculus. Nature of the experiment: Hypnotic activity in fasted C57BL/6N mouse assessed as decrease in latency of pentobarbital-induced sleep at 50 mg/kg, po administered 45 mins prior to pentobarbital-induction coadministered with flumazenil by polysomnographic analysis. The format is functional, organism-based. More on the design: dose 50 mg/kg.

For `CN1C(=O)CN=C(c2ccccc2)c2cc(Cl)ccc21`, the result with Mus musculus [1], in the experiment with Mus musculus [2], in the experiment with Mus musculus [4], in the experiment on Mus musculus [7], in the experiment with Mus musculus [8] and with Mus musculus [9] was inactive. Further, the result with Mus musculus [3], in the experiment with Mus musculus [5], in the experiment on Mus musculus [6] and with Mus musculus [10] was Active.

For the compound `Cc1ccc(-c2nc3ccc(C)cn3c2CC(=O)N(C)C)cc1`, the result in the experiment with Mus musculus [11], in the experiment with Mus musculus [12] and in the experiment on Mus musculus [13] was inactive. The outcome with Mus musculus [14] and in the experiment on Mus musculus [15] was Active.

Consider `CC(C)=CCc1cc([C@@H]2CC(=O)c3ccc(O)c(CC=C(C)C)c3O2)ccc1O` [GLABROL], for which the Activity entry in the experiment on Mus musculus [16] and with Mus musculus [21] was “Dose-dependent effect” throughout. In addition, the outcome in the experiment on Mus musculus [17] and with Mus musculus [20] was Active. Moreover, the result in the experiment on Mus musculus [18] and in the experiment on Mus musculus [22] was inactive. Moreover, the Ki in [19] worked out at 1630 nM.
